Assay results published in ChEMBL document CHEMBL2073879, “Human monocarboxylate transporter 2 (MCT2) is a high affinity pyruvate transporter” (J Biol Chem, 1998).

Experiments:
[1] = target: T1, Monocarboxylate transporter 1 (Rattus norvegicus) (UniProt P53987); test: (§1) TP_TRANSPORTER: inhibition of pyruvate uptake in Xenopus laevis oocytes; assay type: functional, cell-based; set-up: concentration or dose not given beside the values; conditions: Oocyte
T1 sequence (whole entry): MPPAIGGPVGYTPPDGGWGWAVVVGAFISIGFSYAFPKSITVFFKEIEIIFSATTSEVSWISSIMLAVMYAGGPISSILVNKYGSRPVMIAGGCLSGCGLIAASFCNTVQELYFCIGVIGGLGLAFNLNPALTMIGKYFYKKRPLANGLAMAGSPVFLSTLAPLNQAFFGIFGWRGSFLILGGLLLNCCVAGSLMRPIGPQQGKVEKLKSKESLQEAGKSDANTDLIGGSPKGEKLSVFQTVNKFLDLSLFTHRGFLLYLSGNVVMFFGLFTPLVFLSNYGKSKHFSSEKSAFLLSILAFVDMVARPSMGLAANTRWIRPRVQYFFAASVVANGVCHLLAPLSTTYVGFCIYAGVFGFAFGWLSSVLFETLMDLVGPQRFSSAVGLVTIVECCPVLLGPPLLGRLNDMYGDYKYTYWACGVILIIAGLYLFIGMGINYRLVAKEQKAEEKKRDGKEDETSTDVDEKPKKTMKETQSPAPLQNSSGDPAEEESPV

[2] = target: T2, Monocarboxylate transporter 2 (Homo sapiens) (UniProt O60669); test: as §1; assay type: functional, cell-based; set-up: concentration or dose not given beside the values; conditions: Oocyte
T2 sequence (whole entry): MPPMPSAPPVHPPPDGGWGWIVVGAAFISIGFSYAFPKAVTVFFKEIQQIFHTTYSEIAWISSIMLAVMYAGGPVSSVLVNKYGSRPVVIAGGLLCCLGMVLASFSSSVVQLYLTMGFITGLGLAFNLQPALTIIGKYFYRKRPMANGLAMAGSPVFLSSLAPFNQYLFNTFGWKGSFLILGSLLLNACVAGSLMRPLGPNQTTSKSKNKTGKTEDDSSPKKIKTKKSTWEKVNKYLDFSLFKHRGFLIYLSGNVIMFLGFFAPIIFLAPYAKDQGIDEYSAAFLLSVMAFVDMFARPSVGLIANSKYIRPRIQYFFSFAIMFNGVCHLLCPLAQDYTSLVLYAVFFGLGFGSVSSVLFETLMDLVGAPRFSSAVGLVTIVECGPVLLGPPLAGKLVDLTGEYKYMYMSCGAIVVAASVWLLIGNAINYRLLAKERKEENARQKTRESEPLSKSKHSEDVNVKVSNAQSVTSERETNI

Structure (SMILES) | Activity [1] | Activity [2]
CC(O)C(=O)[O-].[Na+] (stereo unspecified) | 0% | 0%
CCOC(=O)/C=C/c1ccc(O)cc1 | 0% | 65%
O=C(O)CCCO | 40% | 10%
C[C@@H](O)C(=O)O | 30% | 10%
CCC(O)C(=O)O (racemic) | 40% | 10%
O=CC[C@@H](O)[C@H](O)[C@H](O)CO | is not an inhibitor [-] | is not an inhibitor [-]
O=C(O)/C=C/c1cccc(O)c1 | 20% | 30%
CC(O)CC(=O)O (racemic) | 20% | 30%
